Consider three compounds from US6660864B2, “Polymorphic forms of 6-[4-(1-cyclohexyl-1H-tetrazol-5-yl)butoxy]-3,4-dihydro-2(1H)-quinolinone” (priority 2001, dated 2003).

The nature of data set [1]: Aqueous solubility of cilostazol polymorphic form. The format is physicochemical. Particulars: Form A as prepared by the procedures of the '479 patent.
The nature of data set [2]: Bioavailability of cilostazol polymorphic form. The format is in vivo. The settings on record: Form A as prepared by the procedures of the '479 patent.
The nature of data set [3]: Relative solubility suggested by DSC thermogram (lower melting point, crystal packing forces). The class given is physicochemical. Particulars: suggested by the lower melting point in DSC (FIG. 8). The source says: (§1) Characterization of Form A of cilostazol, Form B of cilostazol, and Form C of cilostazol was further completed using DSC thermograms, shown in FIGS. 3, 4, and 5, respectively, with DSC thermograms for combinations of Form A and Form B; Form B and Form C; and Forms A, B, and C are shown in FIGS. 6, 7, and 8 respectively. DSC data were generated using a Mettler-Toledo DSC 821^e (Columbus, Ohio) with a Julabo FT900 intercooler chiller (Julabo Company; Allentown, Pa.). In general, samples were analyzed in a vented, sealed aluminum pan. Because the endothermic peak may vary depending upon the rate of heating and the calibration and precision of the instrument, with the amount of peak variation dependent upon the heating rate used, all thermograms included herein were run under the same, consistent conditions: heating at 10° C. per minute under a nitrogen purge at 40 mL/minute.
FIG. 8 illustrates a DSC thermogram for the combination of Form A, Form B and Form C having a second heating cycle with a maximum temperature of about 110° C. with a holding time of about 30 minutes. The peaks in the third heating cycle show a Form A to Form B to Form C peak area ratio of approximately 8:2:1, respectively, with the relative amount of Form A, Form B and Form C further variable on the heat of enthalpy of each polymorphic form.

Data set [4] in a line: DSC heating of disturbed/stressed sample: solid state phase transformation to Form A. The class given is physicochemical. The settings on record: sample disturbed (scratching/stressed), DSC from 30° C. to approximately 200° C. at 10° C. per minute.
From the text: as §1, with “mL/minute. The resultant sample of Example 1A was disturbed with scratching, which caused the cilostazol sample to undergo a solid state phase transformation at approximately 119° C. followed by an endotherm of melt at approximately 160° C. (Form A) during heating by DSC from 30° C. to approximately 200° C. at 10° C. per minute. When the sample is stressed and reheated (as detailed in Example 2A), the sample undergoes a solid state phase transformation at approximately 147° C. followed by an endotherm of melt at about 160° C. […]” for “mL/minute.”

The nature of data set [5]: Stability of the crystalline form. The class given is physicochemical.

Regarding `O=C1CCc2cc(OCCCCc3nnnn3C3CCCCC3)ccc2N1` [Form A, 6-[4-(1-cyclohexyl-1H-tetrazol-5-yl)butoxy]-3,4-dihydro-2(1H)-quinolinone], the aqueous solubility entry in data set [1] was “low aqueous solubility”. Further, the bioavailability result in data set [2] is listed as “low bioavailability”.

`O=C1CCc2cc(OCCCCc3nnnn3C3CCCCC3)ccc2N1` [Form B, 6-[4-(1-cyclohexyl-1H-tetrazol-5-yl)butoxy]-3,4-dihydro-2(1H)-quinolinone]: the “solubility relative to Form A” value in data set [3] is “more soluble than Form A”. Moreover, in data set [4] (listed as Example 1A), the “solid state phase transformation temperature (to Form A)” value was “approximately 119 °C”. For the same compound, the “stability of the polymorphic form” value in data set [5] is “stable”.

With `O=C1CCc2cc(OCCCCc3nnnn3C3CCCCC3)ccc2N1` [Form C, 6-[4-(1-cyclohexyl-1H-tetrazol-5-yl)butoxy]-3,4-dihydro-2(1H)-quinolinone], in data set [4] (listed as Example 2A), the “solid state phase transformation temperature (to Form A)” value was “approximately 147 °C”.
